Experimental data from patent publication US8883801B2, “Substituted pyrazolo[1,5-a]pyrimidines as mTOR inhibitors” (Merck Sharp & Dohme Corp., priority 2010, dated 2014).
pIC50: −log10 of the molar value. Like-named read-outs stand apart in the source and are kept apart here.

Tests used:
human mTOR enzyme = human mTOR enzyme (Homo sapiens, UniProt P42345); assay: HTRF mTOR enzyme (kinase) assay; type: biochemical; settings: 5 μM ATP, 0.2 μM GST-S6K, read-out: hMTOR IC50
[1] = test system: mTORC2 activity: phosphorylated AKT Ser473 (pAKT S473) in PC3 cells; assay: mTOR target engagement assay, immunofluorescent cell-based, mTORC2 readout; settings: Homo sapiens, PC-3, 1.5 h, 90 min treatment
Summary of the method: (§1)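 Read-out is immunofluorescence intensity, normalized to DMSO-only wells and fitted to a sigmoidal Hill equation for IC50. The mTORC1 arm probes phospho-4E-BP1 Thr37/46 and the mTORC2 arm phospho-AKT Ser473.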

[2] = test system: mTORC1 activity: phosphorylated 4E-BP1 Thr37/46 (p4E-BP1 Thr37/46) in PC3 cells; assay: mTOR target engagement assay, immunofluorescent cell-based, mTORC1 readout; settings: Homo sapiens, PC-3, 1.5 h, 90 min treatment, read-out: P4EBP1 IC50
Summary of the method: as §1

Chain of human mTOR enzyme (P42345 1360-2549 limits assumed): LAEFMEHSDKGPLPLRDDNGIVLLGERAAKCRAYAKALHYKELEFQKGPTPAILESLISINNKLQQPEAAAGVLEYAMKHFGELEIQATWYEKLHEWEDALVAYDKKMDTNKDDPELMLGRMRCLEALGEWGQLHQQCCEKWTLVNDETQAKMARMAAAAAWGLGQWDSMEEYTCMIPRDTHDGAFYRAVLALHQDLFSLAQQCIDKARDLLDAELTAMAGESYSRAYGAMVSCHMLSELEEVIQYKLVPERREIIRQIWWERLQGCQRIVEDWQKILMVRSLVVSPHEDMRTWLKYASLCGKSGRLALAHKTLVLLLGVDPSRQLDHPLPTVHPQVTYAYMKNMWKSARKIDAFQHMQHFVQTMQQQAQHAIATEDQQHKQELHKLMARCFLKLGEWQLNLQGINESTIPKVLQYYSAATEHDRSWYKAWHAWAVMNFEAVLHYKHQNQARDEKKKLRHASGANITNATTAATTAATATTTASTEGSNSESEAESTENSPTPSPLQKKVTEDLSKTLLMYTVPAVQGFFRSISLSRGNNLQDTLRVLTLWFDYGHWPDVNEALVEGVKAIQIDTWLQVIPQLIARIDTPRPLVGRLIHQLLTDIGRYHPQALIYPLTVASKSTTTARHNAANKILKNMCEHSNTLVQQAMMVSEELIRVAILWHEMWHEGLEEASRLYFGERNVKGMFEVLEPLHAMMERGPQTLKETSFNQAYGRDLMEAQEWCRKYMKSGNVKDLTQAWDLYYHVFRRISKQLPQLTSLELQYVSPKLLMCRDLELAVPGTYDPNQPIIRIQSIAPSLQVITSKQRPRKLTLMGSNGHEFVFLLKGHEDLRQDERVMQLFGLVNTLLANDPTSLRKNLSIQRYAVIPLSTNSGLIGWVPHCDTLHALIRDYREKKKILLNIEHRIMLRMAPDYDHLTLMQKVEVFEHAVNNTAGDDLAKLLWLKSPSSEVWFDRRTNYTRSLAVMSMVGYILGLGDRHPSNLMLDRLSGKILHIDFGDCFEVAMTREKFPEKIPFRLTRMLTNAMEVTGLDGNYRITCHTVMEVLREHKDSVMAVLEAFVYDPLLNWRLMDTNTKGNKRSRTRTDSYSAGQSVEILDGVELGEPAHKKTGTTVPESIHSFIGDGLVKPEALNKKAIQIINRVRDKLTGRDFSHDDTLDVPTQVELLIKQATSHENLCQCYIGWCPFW

Row | pIC50 (human mTOR enzyme; rated class) | pIC50 ([1]; rated class) | pIC50 ([2]; rated class) | pIC50 (human mTOR enzyme; numeric value) | pIC50 ([1]; numeric value) | pIC50 ([2]; numeric value) | Structure (SMILES)
1 | 7.00 to 9.00 | 7.00 to 9.00 | 7.00 to 9.00 |  |  |  | COCCO[C@]1(C(=O)NO)CC[C@@H](c2nc3c(-c4ccc(-c5ccccc5)nc4)cnn3c(N)c2S(C)(=O)=O)CC1 [Compound 104, (1R,4R)-4-(7-amino-6-(methylsulfonyl)-3-(6-phenylpyridin-3-yl)pyrazolo[1,5-a]pyrimidin-5-yl)-N-hydroxy-1-(2-methoxyethoxy)-cyclohexane-carboxamide]
2 | 7.00 to 9.00 | 7.00 to 9.00 | 6.00 to 7.00 |  |  |  | COCCO[C@]1(C(=O)NOC)CC[C@@H](c2nc3c(-c4ccc(-c5ccccc5)nc4)cnn3c(N)c2S(C)(=O)=O)CC1 [Compound 105, (1R,4R)-4-(7-amino-6-(methylsulfonyl)-3-(6-phenylpyridin-3-yl)pyrazolo[1,5-a]pyrimidin-5-yl)-N-methoxy-1-(2-methoxyethoxy)-cyclohexane-carboxamide]
3 | 7.00 to 9.00 | 7.00 to 9.00 | 6.00 to 7.00 |  |  |  | COCCO[C@]1(c2nnc(N)o2)CC[C@@H](c2nc3c(-c4cnn(-c5ccccc5)c4)cnn3c(N)c2S(C)(=O)=O)CC1 [Compound 108, 5-((1R,4R)-4-(7-amino-6-(methylsulfonyl)-3-(1-phenyl-1H-pyrazol-4-yl)pyrazolo[1,5-a]pyrimidin-5-yl)-1-(2-methoxyethoxy)cyclohexyl)-1,3,4-oxadiazol-2-amine]
4 |  |  |  | 9.00 | 7.32 | 6.85 | COCCO[C@]1(C(N)=O)CC[C@@H](c2nc3c(-c4ccc(-c5ccccc5)nc4)cnn3c(N)c2S(C)(=O)=O)CC1 [Compound 111]
5 | 7.00 to 9.00 | 6.00 to 7.00 | 6.00 to 7.00 |  |  |  | COCCO[C@]1(C(=O)NO)CC[C@H](c2nc3c(-c4ccc(-c5ncc[nH]5)nc4)cnn3c(N)c2C(C)=O)CC1 [Compound 114]
6 | 7.00 to 9.00 | 7.00 to 9.00 | 7.00 to 9.00 |  |  |  | COCCO[C@]1(C(=O)NO)CC[C@@H](c2nc3c(-c4ccc(-c5ncc[nH]5)nc4)cnn3c(N)c2C(C)=O)CC1 [Compound 115, (1R,4R)-(3-(6-(1H-imidazol-2-yl)pyridin-3-yl)-6-acetyl-7-aminopyrazolo[1,5-a]pyrimidin-5-yl)-N-hydroxy-1-(2-methoxyethoxy)cyclohexane carboxamide]
7 | 7.00 to 9.00 | 6.00 to 7.00 | 7.00 to 9.00 |  |  |  | COCCO[C@]1(C(N)=O)CC[C@@H](c2nc3c(-c4ccc(-c5ncc[nH]5)nc4)cnn3c(N)c2S(C)(=O)=O)CC1 [Compound 116]
8 | 7.00 to 9.00 | 6.00 to 7.00 | 6.00 to 7.00 |  |  |  | COCCO[C@]1(c2nnn[nH]2)CC[C@@H](c2nc3c(-c4cnn(-c5ccccc5)c4)cnn3c(N)c2S(C)(=O)=O)CC1 [Compound 118, 5-((1R,4R)-4-(2-methoxyethoxy)-4-(1H-tetrazol-5-yl)cyclohexyl)-6-(methylsulfonyl)-3-(1-phenyl-1H-pyrazol-4-yl)pyrazolo[1,5-a]pyrimidin-7-amine]
9 | 7.00 to 9.00 | 5.70 to 6.00 | 5.30 to 5.70 |  |  |  | COCCO[C@]1(c2nnn[nH]2)CC[C@@H](c2nc3c(-c4ccc(-c5ccccc5)nc4)cnn3c(N)c2S(C)(=O)=O)CC1 [Compound 119]
10 | 7.00 to 9.00 | 6.00 to 7.00 | 6.00 to 7.00 |  |  |  | COCCO[C@]1(c2noc(=O)[nH]2)CC[C@@H](c2nc3c(-c4cnn(-c5ccccc5)c4)cnn3c(N)c2S(C)(=O)=O)CC1 [Compound 121, 3-((1R,4R)-4-(7-amino-6-(methylsulfonyl)-3-(1-phenyl-1H-pyrazol-4-yl)pyrazolo[1,5-a]pyrimidin-5-yl)-1-(2-methoxyethoxy)cyclohexyl)-1,2,4-oxadiazol-5(4H)-one]
11 | 7.00 to 9.00 | 6.00 to 7.00 | 6.00 to 7.00 |  |  |  | COCCO[C@]1(c2nnc[nH]2)CC[C@@H](c2nc3c(-c4cnn(-c5ccccc5)c4)cnn3c(N)c2S(C)(=O)=O)CC1 [Compound 127, 5-((1R,4R)-4-(2-methoxyethoxy)-4-(4H-1,2,4-triazol-3-yl)cyclohexyl)-6-(methylsulfonyl)-3-(1-phenyl-1H-pyrazol-4-yl)pyrazolo[1,5-a]pyrimidin-7-amine]
12 | 7.00 to 9.00 | 6.00 to 7.00 | 6.00 to 7.00 |  |  |  | COCCO[C@]1(c2nnc[nH]2)CC[C@@H](c2nc3c(-c4ccc(-c5ccccc5)nc4)cnn3c(N)c2S(C)(=O)=O)CC1 [Compound 128]

The remaining lines, values behind:

Row | Structure (SMILES) | pIC50 (human mTOR enzyme; rated class) | pIC50 ([1]; rated class) | pIC50 ([2]; rated class) | pIC50 (human mTOR enzyme; numeric value) | pIC50 ([1]; numeric value) | pIC50 ([2]; numeric value)
13 | COCCO[C@]1(c2nnc(C)o2)CC[C@@H](c2nc3c(-c4cnn(-c5ccccc5)c4)cnn3c(N)c2S(C)(=O)=O)CC1 [Compound 109] | 7.00 to 9.00 | 6.00 to 7.00 | 5.30 to 5.70 |  |  | 
14 | COCCO[C@]1(C(N)=O)CC[C@@H](c2nc3c(-c4cnn(-c5ccccc5)c4)cnn3c(N)c2S(C)(=O)=O)CC1 [Compound 110, (1R,4R)-4-(7-amino-6-(methylsulfonyl)-3-(1-phenyl-1H-pyrazol-4-yl)pyrazolo[1,5-a]pyrimidin-5-yl)-1-(2-methoxyethoxy)cyclohexanecarboxamide] | 7.00 to 9.00 | 7.00 to 9.00 | 7.00 to 9.00 |  |  | 
15 | COCCO[C@]1(C(N)=O)CC[C@@H](c2nc3c(-c4ccc(-c5ncc[nH]5)nc4)cnn3c(N)c2C(C)=O)CC1 [Compound 112, (1R,4R)-4-(3-(6-(1H-imidazol-2-yl)pyridin-3-yl)-6-acetyl-7-aminopyrazolo[1,5-a]pyrimidin-5-yl)-1-(2-methoxyethoxy)cyclohexanecarboxamide] | 7.00 to 9.00 | 7.00 to 9.00 | 7.00 to 9.00 |  |  | 
16 | COCCO[C@]1(C(N)=O)CC[C@H](c2nc3c(-c4ccc(-c5ncc[nH]5)nc4)cnn3c(N)c2C(C)=O)CC1 [Compound 113, (1S,4S)-4-(3-(6-(1H-imidazol-2-yl)pyridin-3-yl)-6-acetyl-7-aminopyrazolo[1,5-a]pyrimidin-5-yl)-1-(2-methoxyethoxy) cyclohexanecarboxamide] | 7.00 to 9.00 | 6.00 to 7.00 | 6.00 to 7.00 |  |  | 
17 | COCCO[C@]1(C#N)CC[C@@H](c2nc3c(-c4cnn(-c5ccccc5)c4)cnn3c(N)c2S(C)(=O)=O)CC1 [Compound 117, (1R,4R)-4-(7-amino-6-(methylsulfonyl)-3-(1-phenyl-1H-pyrazol-4-yl)pyrazolo[1,5-a]pyrimidin-5-yl)-1-(2-methoxyethoxy)cyclohexanecarbonitrile] | 7.00 to 9.00 | 6.00 to 7.00 | 5.70 to 6.00 |  |  | 
18 | COCCO[C@]1(C(=N)N)CC[C@@H](c2nc3c(-c4cnn(-c5ccccc5)c4)cnn3c(N)c2S(C)(=O)=O)CC1 [Compound 120, (1R,4R)-4-(7-amino-6-(methylsulfonyl)-3-(1-phenyl-1H-pyrazol-4-yl)pyrazolo[1,5-a]pyrimidin-5-yl)-1-(2-methoxyethoxy)cyclohexanecarboximidamide] | 7.00 to 9.00 | 6.00 to 7.00 | 6.00 to 7.00 |  |  | 
19 | COCCO[C@]1(C(=O)c2nnc[nH]2)CC[C@@H](c2nc3c(-c4cnn(-c5ccccc5)c4)cnn3c(N)c2S(C)(=O)=O)CC1 [Compound 122, ((1R,4R)-4-(7-amino-6-(methylsulfonyl)-3-(1-phenyl-1H-pyrazol-4-yl)pyrazolo[1,5-a]pyrimidin-5-yl)-1-(2-methoxyethoxy)cyclohexyl)(4H-1,2,4-triazol-3-yl)methanone] | 7.00 to 9.00 | 7.00 to 9.00 | 7.00 to 9.00 |  |  | 
20 | COCCO[C@]1(C(=O)c2nnc[nH]2)CC[C@@H](c2nc3c(-c4ccc(-c5ccccc5)nc4)cnn3c(N)c2S(C)(=O)=O)CC1 [Compound 125, ((1R,4R)-4-(7-amino-6-(methylsulfonyl)-3-(6-phenylpyridin-3-yl)pyrazolo[1,5-a]pyrimidin-5-yl)-1-(2-methoxyethoxy)cyclohexyl)(4H-1,2,4-triazol-3-yl)methanone] | 7.00 to 9.00 | 7.00 to 9.00 | 7.00 to 9.00 |  |  | 
21 | COCCO[C@]1(C(=O)c2nnc[nH]2)CC[C@@H](c2cc(N)n3ncc(-c4ccc(-c5ccccc5)nc4)c3n2)CC1 [Compound 126, ((1R,4R)-4-(7-amino-3-(6-phenylpyridin-3-yl)pyrazolo[1,5-a]pyrimidin-5-yl)-1-(2-methoxyethoxy)cyclohexyl)(4H-1,2,4-triazol-3-yl)methanone] | 7.00 to 9.00 | 6.00 to 7.00 | 5.70 to 6.00 |  |  | 
22 | COCCO[C@]1(C(=O)CO)CC[C@@H](c2nc3c(-c4cnn(-c5ccccc5)c4)cnn3c(N)c2S(C)(=O)=O)CC1 [Compound 129, 1-((1R,4R)-4-(7-amino-6-(methylsulfonyl)-3-(1-phenyl-1H-pyrazol-4-yl)pyrazolo[1,5-a]pyrimidin-5-yl)-1-(2-methoxyethoxy)cyclohexyl)-2-hydroxyethanone] | 7.00 to 9.00 | 7.00 to 9.00 | 6.00 to 7.00 |  |  | 
23 | Nc1c(Br)c(C2CCC(O)(C(=O)O)CC2)nc2c(-c3ccc(-c4ccccc4)nc3)cnn12 (stereo not drawn) [Compound 131, 4-(7-amino-6-bromo-3-(6-phenylpyridin-3-yl)pyrazolo[1,5-a]pyrimidin-5-yl)-1-hydroxycyclohexanecarboxylic acid] | 7.00 to 9.00 | 5.70 to 6.00 | 5.30 to 5.70 |  |  | 
24 | CC(=O)c1c(C2CCC(CO)(C(=O)O)CC2)nc2c(-c3ccc(-c4ccccc4)nc3)cnn2c1N (stereo not drawn) [Compound 133, 4-(6-acetyl-7-amino-3-(6-phenylpyridin-3-yl)pyrazolo[1,5-a]pyrimidin-5-yl)-1-(hydroxymethyl)cyclohexanecarboxylic acid] | 7.00 to 9.00 | 6.00 to 7.00 | 6.00 to 7.00 |  |  | 
25 | CC(=O)c1c(N)n2ncc(-c3ccc(-c4ccccc4)nc3)c2nc1[C@H]1CC[C@@](O)(CO)CC1 [Compound 139, 1-(7-amino-5-((1R,4R)-4-hydroxy-4-(hydroxymethyl)cyclohexyl)-3-(6-phenylpyridin-3-yl)pyrazolo[1,5-a]pyrimidin-6-yl)ethanone] | 7.00 to 9.00 | 6.00 to 7.00 | 6.00 to 7.00 |  |  | 
